Laboratory results as given in patent publication US8431715B2, “Thiazole compound (as PPARδ) ligand and pharmaceutical, cosmetic and health food comprised thereof” (Seoul National University Industry Foundation, priority 2007, dated 2013).

What was measured:
[1] = target: T1, PPARγ (Homo sapiens, UniProt P37231); assay: Transfection assay (luciferase reporter) in CV-1 cells, PPARγ; assay type: cell-based; conditions: 24 hours treatment
T1 construct: Full length PPARs plasmid DNA, reporter DNA confirming PPARs activity owing to its luciferase activity; expressed in transfected cells; host or cells: CV-1 cells
T1 sequence (P37231 1-505): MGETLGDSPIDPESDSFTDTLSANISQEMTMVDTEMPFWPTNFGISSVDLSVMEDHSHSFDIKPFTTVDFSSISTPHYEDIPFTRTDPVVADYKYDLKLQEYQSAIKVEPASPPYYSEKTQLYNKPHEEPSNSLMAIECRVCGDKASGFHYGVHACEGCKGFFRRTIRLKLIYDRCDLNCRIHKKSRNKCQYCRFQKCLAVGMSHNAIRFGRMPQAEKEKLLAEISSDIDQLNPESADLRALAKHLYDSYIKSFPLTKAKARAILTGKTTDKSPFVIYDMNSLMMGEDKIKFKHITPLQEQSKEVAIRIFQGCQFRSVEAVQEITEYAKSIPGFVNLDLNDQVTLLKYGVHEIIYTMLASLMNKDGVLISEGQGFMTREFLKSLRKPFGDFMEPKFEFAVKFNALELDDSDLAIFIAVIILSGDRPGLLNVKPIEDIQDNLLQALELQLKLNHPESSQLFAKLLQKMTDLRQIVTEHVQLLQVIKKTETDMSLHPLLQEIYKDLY
Method: (§1) The PPARδ activities of the R-form compound represented by formula 1 of the present invention and the S-form compound represented by formula 2 were measured by transfection assay. In addition, the selectivity to PPAR subtypes, PPARα and PPARγ, was examined. Cytotoxicity was tested by MTT assay and in vivo activity and toxicity was investigated by animal experiment using mice.
(§2) CV-1 cells were used in this assay. The cells were inoculated in a 96-well plate containing DMEM supplemented with 10% FBS, DBS (delipidated) and 1% penicillin/streptomycin and cultured in a 37 °C, 5% CO2 incubator. The experiment was performed according to the steps of inoculation, transfection, sample treatment and confirmation. Particularly, CV-1 cells were inoculated in a 96 well-plate (5000 cells/well), followed by transfection 24 hours later. Full length PPARs plasmid DNA, reporter DNA confirming PPARs activity owing to its luciferase activity, β-galactosidase DNA providing information on transfection efficiency, and transfection reagent were used for the transfection. The compounds of formula 1 and formula 2 were dissolved in dimethylsulfoxide (DMSO), which were treated to the cells via media at different concentrations. […] Luciferase activity and β-galactosidaseactivity were measured with Luminometer and a microplate reader. […] A graph was made with those values and EC50 was calculated.

[2] = tested on: mice; assay: GTT (glucose tolerance test), diabetes improving effect; assay type: in vivo; conditions: oral pre-treatment 78 days
Method: GTT (glucose tolerance test) was performed to confirm the diabetes improving effect of the compound of the present invention. Glucose (1.5 g/Kg) was intra-abdominally administered to the mice pre-treated orally with samples for 78 days. Blood glucose was measured every hour. Fasting blood glucose was lower in the group treated with the compound of the present invention than in the group treated with vehicle or GW501516.

[3] = target: T2, PPARα (Homo sapiens, UniProt Q07869); assay: Transfection assay (luciferase reporter) in CV-1 cells, PPARα; assay type: cell-based; conditions: 24 hours treatment
T2 construct: Full length PPARs plasmid DNA, reporter DNA confirming PPARs activity owing to its luciferase activity; expressed in transfected cells; host or cells: CV-1 cells
T2 sequence (Q07869 1-468): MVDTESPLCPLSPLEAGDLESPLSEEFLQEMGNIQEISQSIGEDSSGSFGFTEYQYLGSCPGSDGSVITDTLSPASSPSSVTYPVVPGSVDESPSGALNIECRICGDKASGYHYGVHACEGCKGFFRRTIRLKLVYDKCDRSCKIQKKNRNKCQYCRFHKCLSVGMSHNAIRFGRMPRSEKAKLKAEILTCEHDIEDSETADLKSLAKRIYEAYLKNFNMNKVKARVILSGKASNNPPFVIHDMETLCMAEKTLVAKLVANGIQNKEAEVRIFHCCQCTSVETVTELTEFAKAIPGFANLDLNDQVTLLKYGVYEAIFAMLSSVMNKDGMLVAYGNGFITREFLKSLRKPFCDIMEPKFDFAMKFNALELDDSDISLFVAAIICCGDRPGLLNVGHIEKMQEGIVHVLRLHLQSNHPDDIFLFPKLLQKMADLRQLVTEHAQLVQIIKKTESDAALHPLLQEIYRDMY
Method: as §1, §2

[4] = target: T3, PPARδ (Homo sapiens, UniProt Q03181); assay: Transfection assay (luciferase reporter) in CV-1 cells, PPARδ; assay type: cell-based; set-up: Full length PPARs plasmid DNA, reporter DNA confirming PPARs activity owing to its luciferase activity; expressed in transfected cells; host or cells: CV-1 cells
T3 sequence (Q03181 1-441): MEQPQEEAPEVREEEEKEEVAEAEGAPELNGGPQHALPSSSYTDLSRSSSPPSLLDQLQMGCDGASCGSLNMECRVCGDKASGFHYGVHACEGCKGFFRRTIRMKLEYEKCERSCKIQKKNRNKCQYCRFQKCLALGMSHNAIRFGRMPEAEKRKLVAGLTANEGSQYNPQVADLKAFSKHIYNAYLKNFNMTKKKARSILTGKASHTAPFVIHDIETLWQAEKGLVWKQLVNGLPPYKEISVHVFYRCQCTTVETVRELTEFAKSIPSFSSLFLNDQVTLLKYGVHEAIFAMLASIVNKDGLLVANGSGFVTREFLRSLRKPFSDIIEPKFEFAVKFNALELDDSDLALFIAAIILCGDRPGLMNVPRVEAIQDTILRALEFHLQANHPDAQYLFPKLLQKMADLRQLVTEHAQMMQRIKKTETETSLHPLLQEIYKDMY
Method: as §1
CV-1 cells were used in this assay. The cells were inoculated in a 96-well plate containing DMEM supplemented with 10% FBS, DBS (delipidated) and 1% penicillin/streptomycin and cultured in a 37 °C, 5% CO2 incubator. The experiment was performed according to the steps of inoculation, transfection, sample treatment and confirmation. Particularly, CV-1 cells were inoculated in a 96 well-plate (5000 cells/well), followed by transfection 24 hours later. Full length PPARs plasmid DNA, reporter DNA confirming PPARs activity owing to its luciferase activity, β-galactosidase DNA providing information on transfection efficiency, and transfection reagent were used for the transfection. The compounds of formula 1 and formula 2 were dissolved in dimethylsulfoxide (DMSO), which were treated to the cells via media at different concentrations. After culturing the cells in the incubator for 24 hours, the cells were lysed by using lysis buffer. Luciferase activity and β-galactosidaseactivity were measured with Luminometer and a microplate reader. The obtained values of luciferase were modified by the values of β-galactosidase. A graph was made with those values and EC50 was calculated.

[5] = tested on: ApoE−/− mouse; assay: Arteriosclerosis inhibiting effect, Sudan IV plaque staining; assay type: in vivo; conditions: 2 mg/kg/day oral, high fat high cholesterol feeds, 28 days
Method: In vivo animal test using ApoE−/− mouse, which is an animal model for arteriosclerosis, was performed to confirm the arteriosclerosis inhibiting effect of the compound of the present invention. The animals were orally administered with 2 mg/kg/day of the compound of formula 1 of the present invention while feeding with high fat, high cholesterol feeds (20% fat, 1.25% cholesterol; AIN-93G diet). 28 days later, plaque staining was performed over the whole artery using Sudan IV to investigate the arteriosclerosis inhibiting effect of the compound by comparing the results between experimental and control groups. As a result, arteriosclerosis was 30% inhibited in ApoE−/− mouse treated with the compound of formula 1 of the present invention, compared with the control.

For `Cc1cc(S[C@H](Cc2ccccc2)c2sc(-c3ccc(C(F)(F)F)cc3)nc2C)ccc1OCC(=O)O` (racemic) [formula 1], the “EC50 PPARγ” value [1] was “ia”, the “time of rapid blood glucose decrease” value ([2]; glucose 1.5 g/Kg intra-abdominal) was 20 to 40 min and the fasting blood glucose ([2]; compared with vehicle or GW501516 group) was “lower”. For the same compound, the “EC50 PPARα” value [3] was “ia”, the EC50 ([4]; CV-1 cells, 24 hours treatment) was 0.6 nM and the “activity of R-isomer compared with S-isomer (formula 2)” value ([4]; PPARδ) was 10 times. The “selectivity to PPARα and PPARγ” value ([4]; PPARδ versus PPARα and PPARγ) was 100,000 times and the “arteriosclerosis inhibition compared with the control” value [5] was 30%.
